US20240228488A1 (TAKEDA PHARMACEUTICAL COMPANY LIMITED, priority 2021, published 2024)

The compounds below were run against human activated kallikrein enzyme (Homo sapiens, UniProt P03952) (assay: Plasma kallikrein inhibition, fluorogenic PFR-AMC substrate, 500 pM activated kallikrein format). Conditions: 500 pM activated kallikrein, 300 uM PFR-AMC, 30 min preincubation, 10 min reaction; read-out: Primary Dose Response Assay: Average EC50.
Assay type: biochemical
Procedure, shortened: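 500 pM enz + cpd, 30 min RT preinc; start w/ PFR-AMC 300 uM; 10 min RT; Ex380/Em460. Buffer: Tris 20 mM pH 7.5, EDTA 1 mM, NaCl 150 mM, PEG-400 0.1%, Triton 0.1%. EC50.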

Sequence of human activated kallikrein enzyme (P03952 391-638 limits assumed): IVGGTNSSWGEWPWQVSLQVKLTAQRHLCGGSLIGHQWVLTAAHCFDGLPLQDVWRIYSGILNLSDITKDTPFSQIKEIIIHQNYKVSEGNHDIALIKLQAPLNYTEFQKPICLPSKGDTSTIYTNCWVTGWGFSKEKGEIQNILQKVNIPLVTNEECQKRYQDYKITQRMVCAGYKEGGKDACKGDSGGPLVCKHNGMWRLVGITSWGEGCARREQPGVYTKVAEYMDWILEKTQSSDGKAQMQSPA
Sequence of human activated kallikrein enzyme (P03952 20-390 partner limits assumed): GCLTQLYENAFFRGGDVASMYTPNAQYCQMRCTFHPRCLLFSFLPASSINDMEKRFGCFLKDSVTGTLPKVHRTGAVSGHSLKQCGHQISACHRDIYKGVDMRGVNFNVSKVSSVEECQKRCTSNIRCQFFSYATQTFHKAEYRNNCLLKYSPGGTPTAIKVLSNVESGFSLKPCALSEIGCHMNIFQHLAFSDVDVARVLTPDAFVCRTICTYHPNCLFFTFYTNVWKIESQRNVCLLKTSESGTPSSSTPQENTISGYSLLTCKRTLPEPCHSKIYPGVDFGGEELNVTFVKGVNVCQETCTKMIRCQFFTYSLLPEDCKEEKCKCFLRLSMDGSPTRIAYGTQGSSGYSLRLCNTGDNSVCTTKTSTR

First: COc1cc([C@H]2C[C@@H]2C(=O)Nc2cc(NCc3cn4cc(C5CC5)ccc4n3)ccn2)cc(NC(=O)OC(C)(C)C)n1 (racemic) [Example I-216, rac-tert-butyl (4-((1S*,2S*)-2-((4-(((6-cyclopropylimidazo[1,2-a]pyridin-2-yl)methyl)amino)pyridin-2-yl)carbamoyl)cyclopropyl)-6-methoxypyridin-2-yl)carbamate]
Second: COc1cc(NCc2cn3cc(C4CC4)ccc3n2)cc(NC(=O)[C@H]2C[C@@H]2c2cccc(Cl)c2)n1 [Example 340, (1S,2S)-2-(3-chlorophenyl)-N-(4-(((6-cyclopropylimidazo[1,2-a]pyridin-2-yl)methyl)amino)-6-methoxypyridin-2-yl)cyclopropane-1-carboxamide]
The EC50 of the first is higher: > 6 µM for the first, 0.001 to 0.01 µM for the second. The second is the more potent here.

First: Cc1nc(NC(=O)[C@H]2C[C@@H]2c2nsc(C)n2)cc(N[C@H](C)c2cn3cc(C4CC4)cc(N4CC(=O)N(C)C4=O)c3n2)n1 (relative stereo) [Example 527, rac-(1S*,2S*)-N-(6-(((R)-1-(6-cyclopropyl-8-(3-methyl-2,4-dioxoimidazolidin-1-yl)imidazo[1,2-a]pyridin-2-yl)ethyl)amino)-2-methylpyrimidin-4-yl)-2-(5-methyl-1,2,4-thiadiazol-3-yl)cyclopropane-1-carboxamide]
Second: Cc1ccnc([C@H]2C[C@@H]2C(=O)Nc2cc(N[C@H](C)c3cn4cc(C5CC5)cc(N5CC(=O)N(C)C5=O)c4n3)nc(CCO)n2)n1 [Example 468, (1S,2S)—N-(6-(((R)-1-(6-cyclopropyl-8-(3-methyl-2,4-dioxoimidazolidin-1-yl)imidazo[1,2-a]pyridin-2-yl)ethyl)amino)-2-(2-hydroxyethyl)pyrimidin-4-yl)-2-(4-methylpyrimidin-2-yl)cyclopropane-1-carboxamide]
The EC50 of the first is higher: 0.001 to 0.01 µM for the first, < 0.001 µM for the second. The second is the more potent here.

First: O=C(Nc1cc(NCc2cn3cc(C4CC4)ccc3n2)ncn1)[C@H]1C[C@@H]1c1cc(Cl)ccc1C(F)F (racemic) [Example 51, rac-(1S*,2S*)-2-(5-chloro-2-(difluoromethyl)phenyl)-N-(6-(((6-cyclopropylimidazo[1,2-a]pyridin-2-yl)methyl)amino)pyrimidin-4-yl)cyclopropane-1-carboxamide]
Second: N#Cc1cc(Cl)sc1[C@H]1C[C@@H]1C(=O)Nc1cc(NCc2cn3cc(C4CC4)ccc3n2)ncn1 (racemic) [Example I-179, rac-(1S*,2S*)-2-(5-chloro-3-cyanothiophen-2-yl)-N-(6-(((6-cyclopropylimidazo[1,2-a]pyridin-2-yl)methyl)amino)pyrimidin-4-yl)cyclopropane-1-carboxamide]
The EC50 of the first is lower: 0.01 to 0.1 µM for the first, 0.1 to 1 µM for the second. The first is the more potent here.

First: O=C(Nc1cc(NCc2cn3cc(C4CC4)ccc3n2)ccn1)[C@H]1C[C@@H]1c1cncc(Cl)c1 (racemic) [Example I-221, rac-(1S*,2S*)-2-(5-chloropyridin-3-yl)-N-(4-(((6-cyclopropylimidazo[1,2-a]pyridin-2-yl)methyl)amino)pyridin-2-yl)cyclopropane-1-carboxamide]
Second: O=C(Nc1cc(NCc2cn3cc(C4CC4)ccc3n2)ccn1)[C@@H]1C[C@H]1c1cccc(Cl)c1 (single isomer, unassigned) [Example 116]
The EC50 of the first is lower: 0.01 to 0.1 µM for the first, 0.1 to 1 µM for the second. The first is the more potent here.

`Cc1ccnc([C@H]2C[C@@H]2C(=O)Nc2ncnc3nn(Cc4cn5cc(C6CC6)cc(N6CC(=O)N(C)C6=O)c5n4)cc23)n1` (single isomer, unassigned) [Example I-634, rac-(1S*,2S*)—N-(2-((6-cyclopropyl-8-(3-methyl-2,4-dioxoimidazolidin-1-yl)imidazo[1,2-a]pyridin-2-yl)methyl)-2H-pyrazolo[3,4-d]pyrimidin-4-yl)-2-(4-methylpyrimidin-2-yl)cyclopropane-1-carboxamide] and `Cc1ccnc([C@H]2C[C@@H]2C(=O)Nc2cc(CCc3cn4cc(C5CC5)cc(N5CC(=O)N(C)C5=O)c4n3)cnn2)n1` [Example 667, (1S,2S)—N-(5-(2-(6-cyclopropyl-8-(3-methyl-2,4-dioxoimidazolidin-1-yl)imidazo[1,2-a]pyridin-2-yl)ethyl)pyridazin-3-yl)-2-(4-methylpyrimidin-2-yl)cyclopropane-1-carboxamide] cannot be ordered by EC50: < 0.001 µM for the first, < 0.001 µM for the second.

`O=C(Nc1cc2c(cn1)ncn2Cc1cn2cc(C3CC3)ccc2n1)[C@H]1C[C@@H]1c1cccc(Cl)c1` (racemic) [Example 594, rac-(1S*,2S*)-2-(3-chlorophenyl)-N-(1-((6-cyclopropylimidazo[1,2-a]pyridin-2-yl)methyl)-1H-imidazo[4,5-c]pyridin-6-yl)cyclopropane-1-carboxamide] and `O=C(Nc1ccnc(NCc2cn3cc(C4CC4)ccc3n2)n1)[C@H]1C[C@@H]1c1cccc(Cl)c1` (racemic) [Example 347, (rac-(1S*,2S*))-2-(3-chlorophenyl)-N-(2-(((6-cyclopropylimidazo[1,2-a]pyridin-2-yl)methyl)amino)pyrimidin-4-yl)cyclopropane-1-carboxamide] fall in the same range of EC50: 0.01 to 0.1 µM for the first, 0.01 to 0.1 µM for the second.

Compared with `O=C(Nc1ncccc1OCc1cn2cc(C3CC3)ccc2n1)[C@H]1C[C@@H]1c1cccc(Cl)c1` [Example 569, (1S,2S)-2-(3-chlorophenyl)-N-(3-((6-cyclopropylimidazo[1,2-a]pyridin-2-yl)methoxy)pyridin-2-yl)cyclopropane-1-carboxamide], `O=C(NCc1cn(Cc2cn3cc(C4CC4)ccc3n2)nn1)[C@H]1C[C@@H]1c1cccc(Cl)c1` (racemic) [Example 588, rac-(1S*,2S*)-2-(3-chlorophenyl)-N-((1-((6-cyclopropylimidazo[1,2-a]pyridin-2-yl)methyl)-1H-1,2,3-triazol-4-yl)methyl)cyclopropane-1-carboxamide] is lower in EC50: 0.1 to 1 µM for the first, 0.01 to 0.1 µM for the second.

`O=C(Nc1cc(NCc2cn3cc(C4CC4)cc(N4CC(=O)N(CC(F)(F)F)C4=O)c3n2)ncn1)[C@H]1C[C@@H]1c1cccc(Cl)c1` [Example 398, (1S,2S)-2-(3-chlorophenyl)-N-(6-(((6-cyclopropyl-8-(2,4-dioxo-3-(2,2,2-trifluoroethyl)imidazolidin-1-yl)imidazo[1,2-a]pyridin-2-yl)methyl)amino)pyrimidin-4-yl)cyclopropane-1-carboxamide] and `CN1CC(=O)N(c2cc(C3CC3)cn3cc(CNc4cc(NC(=O)[C@H]5C[C@@H]5c5cccc(Cl)c5)ncn4)nc23)C1=O` [Example I-171, (1S,2S)-2-(3-chlorophenyl)-N-(6-(((6-cyclopropyl-8-(3-methyl-2,5-dioxoimidazolidin-1-yl)imidazo[1,2-a]pyridin-2-yl)methyl)amino)pyrimidin-4-yl)cyclopropane-1-carboxamide] fall in the same range of EC50: 0.001 to 0.01 µM for the first, 0.001 to 0.01 µM for the second.

`CCc1cc(N2CC(=O)N(C)C2=O)c2nc([C@@H](C)Nc3cc(NC(=O)[C@H]4C[C@@H]4c4nccc(C)n4)nc(C)n3)cn2c1` [Example 429, (1S,2S)-N-(6-(((R)-1-(6-ethyl-8-(3-methyl-2,4-dioxoimidazolidin-1-yl)imidazo[1,2-a]pyridin-2-yl)ethyl)amino)-2-methylpyrimidin-4-yl)-2-(4-methylpyrimidin-2-yl)cyclopropane-1-carboxamide] and `Cc1ccnc([C@H]2C[C@@H]2C(=O)Nc2cc(N[C@H](C)c3cn4cc(C(F)F)cc(N5CC(=O)N(C)C5=O)c4n3)nc(C)n2)n1` [Example 428, (1S,2S)-N-(6-(((R)-1-(6-(difluoromethyl)-8-(3-methyl-2,4-dioxoimidazolidin-1-yl)imidazo[1,2-a]pyridin-2-yl)ethyl)amino)-2-methylpyrimidin-4-yl)-2-(4-methylpyrimidin-2-yl)cyclopropane-1-carboxamide] cannot be ordered by EC50: < 0.001 µM for the first, < 0.001 µM for the second.

`Cc1ccnc([C@H]2C[C@@H]2C(=O)Nc2cccc(OCc3cn4cc(C5CC5)cc(N5CC(=O)N(C)C5=O)c4n3)c2)n1` [Example I-643, (1S,2S)—N-(3-((6-cyclopropyl-8-(3-methyl-2,4-dioxoimidazolidin-1-yl)imidazo[1,2-a]pyridin-2-yl)methoxy)phenyl)-2-(4-methylpyrimidin-2-yl)cyclopropane-1-carboxamide] and `Cc1ccnc([C@H]2C[C@@H]2C(=O)Nc2cc(O[C@H](C)c3cn4cc(C5CC5)cc(N5CC(=O)N(C)C5=O)c4n3)cnn2)n1` (single isomer, unassigned) [Example 42] cannot be ordered by EC50: < 0.001 µM for the first, < 0.001 µM for the second.

`CN(C)C1CCN(c2cc(C3CC3)cn3cc(CNc4cc(NC(=O)[C@H]5C[C@@H]5c5cccc(Cl)c5)ncn4)nc23)C1` (single isomer, unassigned) [Example I-15] and `CC(=O)N1CCN(c2cc(C3CC3)cn3cc(CNc4cc(NC(=O)[C@H]5C[C@@H]5c5cccc(Cl)c5)ncn4)nc23)CC1` [Example I-1, (1S,2S)—N-(6-(((8-(4-acetylpiperazin-1-yl)-6-cyclopropylimidazo[1,2-a]pyridin-2-yl)methyl)amino)pyrimidin-4-yl)-2-(3-chlorophenyl)cyclopropane-1-carboxamide] fall in the same range of EC50: 0.001 to 0.01 µM for the first, 0.001 to 0.01 µM for the second.

`O=C(Nc1cc(NCc2cn3cc(C4CC4)ccc3n2)ncn1)[C@H]1[C@H](F)[C@@H]1c1cccc(Cl)c1` (racemic) [Example 511, rac-(1R*,2R*,3S*)-2-(3-chlorophenyl)-N-(6-(((6-cyclopropylimidazo[1,2-a]pyridin-2-yl)methyl)amino)pyrimidin-4-yl)-3-fluorocyclopropane-1-carboxamide] and `CC1(C)CC(=O)N(c2cc(C3CC3)cn3cc(CNc4cc(NC(=O)[C@H]5C[C@@H]5c5cccc(Cl)c5)ncn4)nc23)C1` (racemic) [Example 66, rac-(1S*,2S*)-2-(3-chlorophenyl)-N-(6-(((6-cyclopropyl-8-(4,4-dimethyl-2-oxopyrrolidin-1-yl)imidazo[1,2-a]pyridin-2-yl)methyl)amino)pyrimidin-4-yl)cyclopropane-1-carboxamide] fall in the same range of EC50: 0.001 to 0.01 µM for the first, 0.001 to 0.01 µM for the second.

With `CC(C)(C)OC(=O)N1CC(c2cc(C3CC3)cn3cc(CNc4ccnc(NC(=O)[C@H]5C[C@@H]5c5cccc(Cl)c5)c4)nc23)C1` [Example I-226, tert-butyl 3-(2-(((2-((1S,2S)-2-(3-chlorophenyl)cyclopropane-1-carboxamido)pyridin-4-yl)amino)methyl)-6-cyclopropylimidazo[1,2-a]pyridin-8-yl)azetidine-1-carboxylate] the EC50 was 0.01 to 0.1 µM.
